Here are results for 17 compounds from US10160747B2, “Compounds and methods for kinase modulation, and indications therefor” (Plexxikon Inc., priority 2016, dated 2018).

Experiment [1] relates to MOLM-14 D835Y (endogenous FLT3 ITD and transfected FLT3 D835Y). Description: MOLM-14 D835Y cell proliferation assay (CellTiter-Glo). Format: cell-based. As to conditions: Homo sapiens, MOLM-14, 72 h; 3 d growth, GMean. In outline:
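MOLM-14 derivatives carrying D835Y or F691L, selected under escalating AC220, were seeded at 1×10^4 cells/well and exposed to an 8-point 1:3 compound series (1 to 0.00046 μM, 0.2% DMSO final) for three days at 37° C., 5% CO2. CellTiter-Glo luminescence (ATP content) versus concentration gave IC50.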
In general terms: Cellular ATP, detected with luciferase, serves as a proxy for viable cell number.

For another experiment, the target named is T1, FLT3-ITD (Homo sapiens, UniProt P36888).
T1 sequence (P36888 1-993): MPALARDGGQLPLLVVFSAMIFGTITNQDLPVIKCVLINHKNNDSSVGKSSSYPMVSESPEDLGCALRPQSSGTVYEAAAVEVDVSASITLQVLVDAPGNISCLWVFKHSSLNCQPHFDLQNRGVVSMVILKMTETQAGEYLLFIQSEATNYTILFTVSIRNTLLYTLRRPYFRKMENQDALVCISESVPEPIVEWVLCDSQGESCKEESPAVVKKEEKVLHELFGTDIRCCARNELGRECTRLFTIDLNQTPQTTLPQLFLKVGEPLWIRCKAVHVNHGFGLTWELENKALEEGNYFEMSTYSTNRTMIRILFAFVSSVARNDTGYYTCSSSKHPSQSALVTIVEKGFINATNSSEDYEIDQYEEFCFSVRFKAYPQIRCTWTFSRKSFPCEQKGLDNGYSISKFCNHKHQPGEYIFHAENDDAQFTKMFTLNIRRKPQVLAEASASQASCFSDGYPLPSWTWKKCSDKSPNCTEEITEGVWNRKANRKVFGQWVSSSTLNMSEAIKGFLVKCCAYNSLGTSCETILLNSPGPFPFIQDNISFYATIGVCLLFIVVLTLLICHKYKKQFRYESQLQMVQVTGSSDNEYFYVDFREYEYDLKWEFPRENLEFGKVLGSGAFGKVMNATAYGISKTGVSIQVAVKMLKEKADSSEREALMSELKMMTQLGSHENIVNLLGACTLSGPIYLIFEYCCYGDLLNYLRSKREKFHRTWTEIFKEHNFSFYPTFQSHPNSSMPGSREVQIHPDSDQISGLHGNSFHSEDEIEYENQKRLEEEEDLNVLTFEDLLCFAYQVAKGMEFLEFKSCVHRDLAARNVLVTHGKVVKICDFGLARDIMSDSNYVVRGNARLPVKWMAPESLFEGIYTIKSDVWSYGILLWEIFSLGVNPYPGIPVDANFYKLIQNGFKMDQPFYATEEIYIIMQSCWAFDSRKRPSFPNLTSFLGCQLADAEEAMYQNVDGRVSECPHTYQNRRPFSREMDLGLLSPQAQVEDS
The experiment can be described thus: FLT3-ITD recombinant enzyme kinase assay (AlphaScreen). The experiment is classed as biochemical. To be noted: 8 pt; read-out: FLT3_ITD 8 pt: IC50. In outline:
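IC50 values are derived from reduced AlphaScreen signal as inhibitors block tyrosine phosphorylation of a biotinylated poly(Glu4-Tyr) peptide (30 nM) by recombinant kinase. FLT3 variants are run at 10 μM ATP, c-KIT at 100 μM.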

Consider `CCn1cc(Nc2ncc(-c3ccc(CC(=O)Nc4cnc(C)c(C(F)(F)F)c4)cc3)cn2)cn1` [Compound P-0254, 2-[4-[2-[(1-ethylpyrazol-4-yl)amino]pyrimidin-5-yl]phenyl]-N-[6-methyl-5-(trifluoromethyl)-3-pyridyl]acetamide], for which the concentration for half-maximal inhibition (IC50) (in experiment [1]; on FLT3-ITD) was 0.0001 to 10 µM each time.
In the case of `CCn1cc(Nc2ncc(-c3ccc(CC(=O)Nc4cc(C(F)(F)F)ccn4)c(F)c3)cn2)cn1` [Compound P-0255, 2-[4-[2-[(1-ethylpyrazol-4-yl)amino]pyrimidin-5-yl]-2-fluoro-phenyl]-N-[4-(trifluoromethyl)-2-pyridyl]acetamide], the IC50 (in experiment [1]; at FLT3-ITD) was 0.0001 to 10 µM in each case.
In the case of `CCn1cc(Nc2ncc(-c3ccc(CC(=O)Nc4ccc(C(F)(F)F)cn4)c(F)c3)cn2)cn1` [Compound P-0256, 2-[4-[2-[(1-ethylpyrazol-4-yl)amino]pyrimidin-5-yl]-2-fluoro-phenyl]-N-[5-(trifluoromethyl)-2-pyridyl]acetamide], the 50% inhibitory concentration (IC50) (in experiment [1]; on FLT3-ITD) was 0.0001 to 10 µM each time.
Consider `CCn1cc(Nc2ncc(-c3ccc(CC(=O)Nc4ccc(C(F)(F)F)nc4)c(F)c3)cn2)cn1` [Compound P-0257, 2-[4-[2-[(1-ethylpyrazol-4-yl)amino]pyrimidin-5-yl]-2-fluoro-phenyl]-N-[6-(trifluoromethyl)-3-pyridyl]acetamide], for which the half-inhibitory concentration (IC50) (in experiment [1]; at FLT3-ITD) was 0.0001 to 10 µM each time.
Consider `CCn1cc(Nc2ncc(-c3ccc(CC(=O)Nc4cncc(C(F)(F)F)c4)c(F)c3)cn2)cn1` [Compound P-0258, 2-[4-[2-[(1-ethylpyrazol-4-yl)amino]pyrimidin-5-yl]-2-fluoro-phenyl]-N-[5-(trifluoromethyl)-3-pyridyl]acetamide], for which the 50% inhibitory concentration (IC50) (in experiment [1]; at FLT3-ITD) was 0.0001 to 10 µM each time.
Regarding `CCn1cc(Nc2ncc(-c3ccc(CC(=O)Nc4cnc(OC)c(C(F)(F)F)c4)c(F)c3)cn2)cn1` [Compound P-0259, 2-[4-[2-[(1-ethylpyrazol-4-yl)amino]pyrimidin-5-yl]-2-fluoro-phenyl]-N-[6-methoxy-5-(trifluoromethyl)-3-pyridyl]acetamide], the IC50 (in experiment [1]; at FLT3-ITD) was 0.0001 to 10 µM in each case.
On to `CCn1cc(Nc2ncc(-c3ccc(CC(=O)Nc4cnc(Cl)c(C(F)(F)F)c4)c(F)c3)cn2)cn1` [Compound P-0260, N-[6-chloro-5-(trifluoromethyl)-3-pyridyl]-2-[4-[2-[(1-ethylpyrazol-4-yl)amino]pyrimidin-5-yl]-2-fluoro-phenyl]acetamide], for which the IC50 (in experiment [1]; at FLT3-ITD) was 0.0001 to 10 µM in each case.
Consider `CCn1cc(Nc2ncc(-c3ccc(CC(=O)Nc4cnc(C)c(C(F)(F)F)c4)c(F)c3)cn2)cn1` [Compound P-0261, 2-[4-[2-[(1-ethylpyrazol-4-yl)amino]pyrimidin-5-yl]-2-fluoro-phenyl]-N-[6-methyl-5-(trifluoromethyl)-3-pyridyl]acetamide], for which the IC50 (in experiment [1]; at FLT3-ITD) was 0.0001 to 10 µM throughout.
On to `COCCn1cc(Nc2ncc(-c3ccc(CC(=O)Nc4cnc(OC)c(C(F)(F)F)c4)c(F)c3)cn2)cn1` [Compound P-0265, 2-[2-fluoro-4-[2-[[1-(2-methoxyethyl)pyrazol-4-yl]amino]pyrimidin-5-yl]phenyl]-N-[6-methoxy-5-(trifluoromethyl)-3-pyridyl]acetamide], for which the IC50 (in experiment [1]; on FLT3-ITD) was 0.0001 to 10 µM in each case.
For `COCCn1cc(Nc2ncc(-c3ccc(CC(=O)Nc4cnc(Cl)c(C(F)(F)F)c4)c(F)c3)cn2)cn1` [Compound P-0266, N-[6-chloro-5-(trifluoromethyl)-3-pyridyl]-2-[2-fluoro-4-[2-[[1-(2-methoxyethyl)pyrazol-4-yl]amino]pyrimidin-5-yl]phenyl]acetamide], the concentration for half-maximal inhibition (IC50) (in experiment [1]; on FLT3-ITD) was 0.0001 to 10 µM throughout.
On to `COCCn1cc(Nc2ncc(-c3ccc(CC(=O)Nc4cncc(C(F)(F)F)c4)c(F)c3)cn2)cn1` [Compound P-0267, 2-[2-fluoro-4-[2-[[1-(2-methoxyethyl)pyrazol-4-yl]amino]pyrimidin-5-yl]phenyl]-N-[5-(trifluoromethyl)-3-pyridyl]acetamide], for which the concentration for half-maximal inhibition (IC50) (in experiment [1]; at FLT3-ITD) was 0.0001 to 10 µM each time.
Consider `COCCn1cc(Nc2ncc(-c3ccc(CC(=O)Nc4ccc(C(F)(F)F)nc4)c(F)c3)cn2)cn1` [Compound P-0268, 2-[2-fluoro-4-[2-[[1-(2-methoxyethyl)pyrazol-4-yl]amino]pyrimidin-5-yl]phenyl]-N-[6-(trifluoromethyl)-3-pyridyl]acetamide], for which the IC50 (in experiment [1]; at FLT3-ITD) was 0.0001 to 10 µM each time.
Turning to `COCCn1cc(Nc2ncc(-c3ccc(CC(=O)Nc4ccc(C(F)(F)F)cn4)c(F)c3)cn2)cn1` [Compound P-0269, 2-[2-fluoro-4-[2-[[1-(2-methoxyethyl)pyrazol-4-yl]amino]pyrimidin-5-yl]phenyl]-N-[5-(trifluoromethyl)-2-pyridyl]acetamide], the IC50 (in experiment [1]; on FLT3-ITD) was 0.0001 to 10 µM in each case.
`COCCn1cc(Nc2ncc(-c3ccc(CC(=O)Nc4cc(C(F)(F)F)ccn4)c(F)c3)cn2)cn1` [Compound P-0270, 2-[2-fluoro-4-[2-[[1-(2-methoxyethyl)pyrazol-4-yl]amino]pyrimidin-5-yl]phenyl]-N-[4-(trifluoromethyl)-2-pyridyl]acetamide]: the IC50 (in experiment [1]; at FLT3-ITD) was 0.0001 to 10 µM throughout.
As for `COCCn1cc(Nc2ncc(-c3ccc(CC(=O)Nc4cnc(OC)c(C(F)(F)F)c4)cc3)cn2)cn1` [Compound P-0271, 2-[4-[2-[[1-(2-methoxyethyl)pyrazol-4-yl]amino]pyrimidin-5-yl]phenyl]-N-[6-methoxy-5-(trifluoromethyl)-3-pyridyl]acetamide], the IC50 (in experiment [1]; at FLT3-ITD) was 0.0001 to 10 µM each time.
Turning to `COCCn1cc(Nc2ncc(-c3ccc(CC(=O)Nc4ccc(C(F)(F)F)nc4)cc3)cn2)cn1` [Compound P-0273, 2-[4-[2-[[1-(2-methoxyethyl)pyrazol-4-yl]amino]pyrimidin-5-yl]phenyl]-N-[6-(trifluoromethyl)-3-pyridyl]acetamide], the half-maximal inhibitory concentration (IC50) (in experiment [1]; at FLT3-ITD) was 0.0001 to 10 µM in each case.
Consider `COCCn1cc(Nc2ncc(-c3ccc(CC(=O)Nc4ccc(C(F)(F)F)cn4)cc3)cn2)cn1` [Compound P-0274, 2-[4-[2-[[1-(2-methoxyethyl)pyrazol-4-yl]amino]pyrimidin-5-yl]phenyl]-N-[5-(trifluoromethyl)-2-pyridyl]acetamide], for which the IC50 (in experiment [1]; at FLT3-ITD) was 0.0001 to 10 µM in each case.

The term IC50 denotes the point on the concentration scale where inhibition reaches its midpoint.
